Assay results: patent US20260345621A1, “GABAA RECEPTOR MODULATORS AND USES THEREOF” (Engrail Therapeutics, Inc., priority 2022, published 2026)
“Also recorded” adds a separate entry of the source. Read-outs that look alike come from different tables or passages of the source.

Test: Multiple ascending dose study, plasma pharmacokinetics
Format: in vivo, human (healthy volunteers)
Settings: for AUC(0-t) at 24 h / Cmax at 24 h / AUC tau / Cmax at 288 h / half-life: human, plasma, po
Procedure: A clinical study was developed to evaluate safety, tolerability, pharmacokinetics, and pharmacodynamics of Compound 1 at plasma steady-state in 40 healthy human volunteers. Compound 1 (provided as Compound 1 phosphate) was administered to participants as multiple ascending doses of 0.5 mg (N=6), 1.0 mg (N=6), 1.5 mg (N=6), 2.0 mg (N=6), or 5.0 mg (N=6) once daily (QD) for 12 days.
Blood samples were collected, and plasma concentrations were measured using a validated high performance liquid chromatography/liquid chromatography-mass spectrometry/mass spectrometry method. The PK parameters assessed included Cmax, Tmax, AUC from administration to the end of dosing (AUC0-t), AUC0-24, AUC0-inf, t1/2, terminal rate constant (λz), apparent total clearance of the drug from plasma (CL/F), and apparent volume of distribution during terminal phase after non-intravenous administration (Vz/F).
The plasma concentration data for Compound 1 were summarized by dose level and the planned sampling time points using descriptive statistics (n, SD, median, minimum, maximum, geometric mean, and coefficient of variance (CV %) for the geometric mean) for the PK Analysis Set.
Specifically, samples for PK analyses were taken on Day 1 and Day 12 pre-dose, 0.5, 1, 1.5, 3, 6, 8, 10, and 12 h post-dose, with additional samples taken on every dosing Day (24 hours after the previous day's dose) and 24, 72, 168, and 336 h after last dosing on Day 12. All individual Compound 1 concentrations were above the LLOQ of 0.0500 ng/mL at 0.5 h post-dose, except for 1 participant, for whom the concentration was above the LLOQ at 1 h post-dose.

[1] = 0.5 mg oral QD, Day 1, 1440 min
[2] = 1.0 mg oral QD, Day 1, 1440 min
[3] = 1.5 mg oral QD, Day 1, 1440 min
[4] = 2.0 mg oral QD, Day 1, 1440 min

## CC(C)(O)c1cnn2c(-c3ccc(F)c(-c4c(F)cccc4C#N)c3)cnc2n1 [Compound 1, 2′,6-difluoro-5′-(3-(2-hydroxypropan-2-yl)imidazo[1,2-b][1,2,4]triazin-7-yl)-[1,1′-biphenyl]-2-carbonitrile]
[1]
  AUC0-24 (mean): 52.56 ng·h/mL
  Cmax (mean): 4.615 ng/mL
0.5 mg oral QD, Day 12
  AUCtau (mean): 197.54 ng·h/mL
  t1/2 (mean): 65.610 h
0.5 mg oral QD, Day 12, 17280 min
  Cmax (mean): 11.660 ng/mL
[2]
  AUC0-24 (mean): 117.81 ng·h/mL
  Cmax (mean): 8.497 ng/mL
1.0 mg oral QD, Day 12
  AUCtau (mean): 410.07 ng·h/mL
  t1/2 (mean): 60.876 h
1.0 mg oral QD, Day 12, 17280 min
  Cmax (mean): 23.333 ng/mL
[3]
  AUC0-24 (mean): 216.99 ng·h/mL
  Cmax (mean): 18.833 ng/mL
1.5 mg oral QD, Day 12
  AUCtau (mean): 705.65 ng·h/mL
  t1/2 (mean): 50.526 h
[4]
  AUC0-24 (mean): 243.73 ng·h/mL
  Cmax (mean): 19.633 ng/mL
2.0 mg oral QD, Day 12
  AUCtau (mean): 873.17 ng·h/mL
  t1/2 (mean): 61.167 h
2.0 mg oral QD, Day 12, 17280 min
  Cmax (mean): 49.817 ng/mL
5.0 mg oral QD, Day 1, 1440 min
  AUC0-24 (mean): 641.92 ng·h/mL
5.0 mg oral QD, Day 12
  t1/2 (mean): 38.695 h
0.5-5.0 mg oral QD
  trend of t1/2 or λz with increasing dose: no trend towards change in t1/2 or λz with increasing dose
Cmax and AUC, 0.5-5.0 mg oral QD
  dose proportionality of exposure: generally increased dose- and concentration-proportionally; also recorded: Dose-proportional PK were confirmed over the investigated dose range
All cohorts, Day 1
  median time of the last quantifiable concentration: approximately 24 h
Arguable exception 1.5 mg
  linearity of dose normalized Cmax and AUC0-24: consistent with linear kinetics
0.5 mg, 0.5 mg oral QD, Day 1, read-out: AUC0-24 (mean)
  AUC(0-t) at 24 h: 53 ± 7 ng·h/mL
0.5 mg, 0.5 mg oral QD, Day 1, read-out: AUC0-24 (median)
  AUC(0-t) at 24 h: 54.8 ng·h/mL
0.5 mg, 0.5 mg oral QD, Day 1, read-out: Cmax (mean)
  Cmax at 24 h: 4.6 ± 2 ng/mL
0.5 mg, 0.5 mg oral QD, Day 1, read-out: Cmax (median)
  Cmax at 24 h: 4.58 ng/mL
0.5 mg, 0.5 mg oral QD, Day 12, read-out: AUCtau (mean)
  AUC tau: 198 ± 51 ng·h/mL
0.5 mg, 0.5 mg oral QD, Day 12, read-out: AUCtau (median)
  AUC tau: 201 ng·h/mL
0.5 mg, 0.5 mg oral QD, Day 12, read-out: Cmax (mean)
  Cmax at 288 h: 11.7 ± 4 ng/mL
0.5 mg, 0.5 mg oral QD, Day 12, read-out: Cmax (median)
  Cmax at 288 h: 11.6 ng/mL
0.5 mg, 0.5 mg oral QD, Day 12, read-out: t1/2 (mean) (converted)
  half-life: 66 ± 24 h
0.5 mg, 0.5 mg oral QD, Day 12, read-out: t1/2 (median) (converted)
  half-life: 64.3 h
1 mg, 1.0 mg oral QD, Day 1, read-out: AUC0-24 (mean)
  AUC(0-t) at 24 h: 118 ± 27 ng·h/mL
1 mg, 1.0 mg oral QD, Day 1, read-out: AUC0-24 (median)
  AUC(0-t) at 24 h: 117 ng·h/mL
1 mg, 1.0 mg oral QD, Day 1, read-out: Cmax (mean)
  Cmax at 24 h: 8.5 ± 3 ng/mL
1 mg, 1.0 mg oral QD, Day 1, read-out: Cmax (median)
  Cmax at 24 h: 8.99 ng/mL
1 mg, 1.0 mg oral QD, Day 12, read-out: AUCtau (mean)
  AUC tau: 410 ± 115 ng·h/mL
1 mg, 1.0 mg oral QD, Day 12, read-out: AUCtau (median)
  AUC tau: 416 ng·h/mL
1 mg, 1.0 mg oral QD, Day 12, read-out: Cmax (mean)
  Cmax at 288 h: 23.3 ± 5 ng/mL
1 mg, 1.0 mg oral QD, Day 12, read-out: Cmax (median)
  Cmax at 288 h: 22.6 ng/mL
1 mg, 1.0 mg oral QD, Day 12, read-out: t1/2 (mean) (converted)
  half-life: 61 ± 29 h
1 mg, 1.0 mg oral QD, Day 12, read-out: t1/2 (median) (converted)
  half-life: 58.2 h
1.5 mg, 1.5 mg oral QD, Day 1, read-out: AUC0-24 (mean)
  AUC(0-t) at 24 h: 217 ± 48 ng·h/mL
1.5 mg, 1.5 mg oral QD, Day 1, read-out: AUC0-24 (median)
  AUC(0-t) at 24 h: 227 ng·h/mL
1.5 mg, 1.5 mg oral QD, Day 1, read-out: Cmax (mean)
  Cmax at 24 h: 18.8 ± 7 ng/mL
1.5 mg, 1.5 mg oral QD, Day 1, read-out: Cmax (median)
  Cmax at 24 h: 18.2 ng/mL
1.5 mg, 1.5 mg oral QD, Day 12, read-out: AUCtau (mean)
  AUC tau: 706 ± 84 ng·h/mL
